We go through four compounds from patent EP0847397B1, “WATER-SOLUBLE C-RING ANALOGUES OF 20 (S)-CAMPTOTHECIN” (DR. REDDY'S RESEARCH FOUNDATION, priority 1996, dated 1997).

Read-outs that look alike come from different tables or passages of the source.

For test [1], the system named is MOLT 4. Put plainly: NCI in vitro 60 human tumor cell line assay. It counts as cell-based. The note with it: MOLT 4, […], 48h, read-out: Total Growth Inhibition (TGI).
Experimental: (§1) Each test compound was screened against a battery of 60 human cell lines obtained from eight organs. In a typical procedure, the cell suspensions that were diluted according to the particular cell type and the expected target cell density (5000-40,000 cells per well based on cell growth characteristics) were added into 96-well microtiter plates. Inoculates were allowed a preincubation period of 24h at 37°C. for stabilization. Dilutions at twice the intended test concentrations were added at time zero in 100-µl aliquots to microtiter plate wells. Usually test compounds were evaluated at five 10-fold dilutions. The highest well concentration used in the test is 10^-4M. The cells are then incubated in the presence of drug (the test compound) for further 48h in 5% CO2 atmosphere and 100% humidity. At the end of this time, the adherent cells are fixed to the plate by means of trichloroacetic acid, and after a number of washes, the cell layer is treated with the protein stain Sulforhodamine B. The optical density which is proportional to protein mass, is then read by automated spectrophotometric plate readers at a wavelength of 515 nm. Readings are transferred to a microcomputer and final reports are generated using especially developed software.
Test [2] has as its system SF 295. The experiment in a line: NCI in vitro 60 human tumor cell line assay. The note with it: SF 295, CNS, 48h, read-out: Total Growth Inhibition (TGI). It counts as cell-based.
Experimental: as §1
In test [3] the test system is U 251. The experiment in a line: NCI in vitro 60 human tumor cell line assay. The note with it: U 251, CNS, 48h, read-out: Total Growth Inhibition (TGI). The format is cell-based.
Experimental: as §1
Test [4] deals with MCF 7. The experiment in a line: NCI in vitro 60 human tumor cell line assay. The note with it: read-out: Total Growth Inhibition (TGI). The format is cell-based.
Experimental: as §1
Test [5] concerns HT 29. The experiment in a line: NCI in vitro 60 human tumor cell line assay. It counts as cell-based.
Experimental: as §1
Test [6] concerns EKVX. Put plainly: NCI in vitro 60 human tumor cell line assay. The note with it: NSLC, 48h, read-out: Total Growth Inhibition (TGI). It counts as cell-based.
Experimental: as §1
For test [7], the system named is H 460. Put plainly: NCI in vitro 60 human tumor cell line assay. It counts as cell-based. The note with it: for IC (TGI): Homo sapiens, read-out: Total Growth Inhibition (TGI).
Experimental: as §1
Test [8] deals with H 322M. Put plainly: NCI in vitro 60 human tumor cell line assay. The note with it: NCI-H322M, H 322M, NSLC, 48h, read-out: Total Growth Inhibition (TGI). The format is cell-based.
Experimental: as §1
Test [9] has as its system HCC 2998. Put plainly: NCI in vitro 60 human tumor cell line assay. The format is cell-based. The note with it: for IC (TGI): Homo sapiens, read-out: Total Growth Inhibition (TGI).
Experimental: as §1
Test [10] deals with HCT 15. The experiment in a line: NCI in vitro 60 human tumor cell line assay. It counts as cell-based. The note with it: HCT 15, COLON CANCER, 48h, read-out: Total Growth Inhibition (TGI).
Experimental: as §1
The test system of test [11] is SK OV3. The experiment in a line: NCI in vitro 60 human tumor cell line assay. It counts as cell-based. The note with it: SK-OV-3, SK OV3, OVARIAN, 48h, read-out: Total Growth Inhibition (TGI).
Experimental: (§2) Each test compound was screened against a battery of 60 human cell lines obtained from eight organs. In a typical procedure, the cell suspensions that were diluted according to the particular cell type and the expected target cell density (5000-40,000 cells per well based on cell growth characteristics) were added into 96-well microtiter plates. Inoculates were allowed a preincubation period of 24h at 37°C. for stabilization. Dilutions at twice the intended test concentrations were added at time zero in 100-µl aliquots to microtiter plate wells. Usually test compounds were evaluated at five 10-fold dilutions. The highest well concentration used in the test is 10^-4M. The cells are then incubated in the presence of drug (the test compound) for further 48h in 5% CO2 atmosphere and 100% humidity. At the end of this time, the adherent cells are fixed to the plate by means of trichloroacetic acid, and after a number of washes, the cell layer is treated with the protein stain Sulforhodamine B. The optical density which is proportional to protein mass, is then read by automated spectrophotometric plate readers at a wavelength of 515 nm.
Test [12] concerns OVCAR 8. Put plainly: NCI in vitro 60 human tumor cell line assay. The format is cell-based. The note with it: OVCAR 8, OVARIAN, 48h, read-out: Total Growth Inhibition (TGI).
Experimental: as §2
The subject of test [13] is UO 31. Put plainly: NCI in vitro 60 human tumor cell line assay. The format is cell-based. The note with it: UO 31, RENAL, 48h, read-out: Total Growth Inhibition (TGI).
Experimental: as §1
The test system of test [14] is SF 268. Put plainly: NCI in vitro 60 human tumor cell line assay. It counts as cell-based. The note with it: SF-268, 48 h, read-out: Total Growth Inhibition (TGI).
Experimental: as §2
For test [15], the system named is HOP 62. Put plainly: NCI in vitro 60 human tumor cell line assay. It counts as cell-based. The note with it: read-out: Total Growth Inhibition (TGI).
Test [16] deals with HOP 92. Put plainly: NCI in vitro 60 human tumor cell line assay. The note with it: HOP 92, NSLC, 48h, read-out: Total Growth Inhibition (TGI). It counts as cell-based.
Test [17] has as its system H 226. Put plainly: NCI in vitro 60 human tumor cell line assay. It counts as cell-based. The note with it: read-out: Total Growth Inhibition (TGI).
Experimental: as §1
In test [18] the test system is H 23. The experiment in a line: NCI in vitro 60 human tumor cell line assay. It counts as cell-based. The note with it: read-out: Total Growth Inhibition (TGI).
Experimental: as §1
The subject of test [19] is H 522. The experiment in a line: NCI in vitro 60 human tumor cell line assay. The format is cell-based. The note with it: NCI-H522, H 522, NSLC, 48h, read-out: Total Growth Inhibition (TGI).
Experimental: as §1
For test [20], the system named is COLO 205. Put plainly: NCI in vitro 60 human tumor cell line assay. The format is cell-based. The note with it: read-out: Total Growth Inhibition (TGI).
Experimental: as §1
Test [21] deals with HCT 116. Put plainly: NCI in vitro 60 human tumor cell line assay. The format is cell-based. The note with it: HCT 116, COLON CANCER, 48h, read-out: Total Growth Inhibition (TGI).
The subject of test [22] is KM 12. The experiment in a line: NCI in vitro 60 human tumor cell line assay. The note with it: read-out: Total Growth Inhibition (TGI). It counts as cell-based.
Experimental: as §1
Test [23] deals with MCF 7/ ADR. Put plainly: NCI in vitro 60 human tumor cell line assay. It counts as cell-based. The note with it: MCF 7/ ADR, BREAST, 48h.
Experimental: as §1
Test [24] has as its system MDA-MB-435. The experiment in a line: NCI in vitro 60 human tumor cell line assay. The format is cell-based. The note with it: MDA-MB-435, BREAST, 48h, read-out: Total Growth Inhibition (TGI).
The subject of test [25] is BT 549. The experiment in a line: NCI in vitro 60 human tumor cell line assay. It counts as cell-based. The note with it: BT 549, BREAST, 48h, read-out: Total Growth Inhibition (TGI).
Experimental: as §1
Test [26] concerns T 47D. Put plainly: NCI in vitro 60 human tumor cell line assay. The note with it: T47D, T 47D, BREAST, 48h, read-out: Total Growth Inhibition (TGI). It counts as cell-based.
Experimental: as §1
The test system of test [27] is 786-O. The experiment in a line: NCI in vitro 60 human tumor cell line assay. It counts as cell-based. The note with it: 786-0, 786-O, RENAL CANCER, 48h, read-out: Total Growth Inhibition (TGI).
Experimental: as §2
Test [28] has as its system A 498. Put plainly: NCI in vitro 60 human tumor cell line assay. The format is cell-based. The note with it: A498, A 498, RENAL CANCER, 48h, read-out: Total Growth Inhibition (TGI).
Experimental: as §1
Test [29] has as its system ACHN. The experiment in a line: NCI in vitro 60 human tumor cell line assay. The format is cell-based. The note with it: RENAL CANCER, 48h, read-out: Total Growth Inhibition (TGI).
Experimental: as §1
Test [30] deals with CAKI. The experiment in a line: NCI in vitro 60 human tumor cell line assay. It counts as cell-based. The note with it: CAKI, RENAL CANCER, 48h, read-out: Total Growth Inhibition (TGI).
Experimental: as §1
In test [31] the test system is RXF 393. The experiment in a line: NCI in vitro 60 human tumor cell line assay. It counts as cell-based. The note with it: RXF 393, RENAL CANCER, 48h, read-out: Total Growth Inhibition (TGI).
Experimental: as §1
Test [32] relates to SN12C. Put plainly: NCI in vitro 60 human tumor cell line assay. It counts as cell-based. The note with it: RENAL CANCER, 48h, read-out: Total Growth Inhibition (TGI).
Experimental: as §1
Test [33] can be described thus: NCI in vitro 60 human tumor cell line assay. It counts as cell-based. The note with it: read-out: Total Growth Inhibition (TGI).
Experimental: as §1
For test [34], the system named is MCF7 / ADR / RES. The experiment in a line: NCI in vitro 60 human tumor cell line assay. The format is cell-based. The note with it: read-out: Total Growth Inhibition (TGI).
Experimental: as §1
For test [35], the system named is NCI's 60 human tumor cell line assay. Put plainly: cells. It counts as cell-based. The note with it: 60 cell, 48 h, read-out: IC50 (mean GI50 against NCI's 60 human tumor cell line assay).
Experimental: as §1
For test [36] the following is noted: compared with 20(RS)-camptothecin of the formula 8; cited from earlier work.
Test [37] addresses topoisomerase I (Homo sapiens, UniProt P11387). The note with it: result in words; cited from earlier work.

Chain of topoisomerase I (P11387 whole entry): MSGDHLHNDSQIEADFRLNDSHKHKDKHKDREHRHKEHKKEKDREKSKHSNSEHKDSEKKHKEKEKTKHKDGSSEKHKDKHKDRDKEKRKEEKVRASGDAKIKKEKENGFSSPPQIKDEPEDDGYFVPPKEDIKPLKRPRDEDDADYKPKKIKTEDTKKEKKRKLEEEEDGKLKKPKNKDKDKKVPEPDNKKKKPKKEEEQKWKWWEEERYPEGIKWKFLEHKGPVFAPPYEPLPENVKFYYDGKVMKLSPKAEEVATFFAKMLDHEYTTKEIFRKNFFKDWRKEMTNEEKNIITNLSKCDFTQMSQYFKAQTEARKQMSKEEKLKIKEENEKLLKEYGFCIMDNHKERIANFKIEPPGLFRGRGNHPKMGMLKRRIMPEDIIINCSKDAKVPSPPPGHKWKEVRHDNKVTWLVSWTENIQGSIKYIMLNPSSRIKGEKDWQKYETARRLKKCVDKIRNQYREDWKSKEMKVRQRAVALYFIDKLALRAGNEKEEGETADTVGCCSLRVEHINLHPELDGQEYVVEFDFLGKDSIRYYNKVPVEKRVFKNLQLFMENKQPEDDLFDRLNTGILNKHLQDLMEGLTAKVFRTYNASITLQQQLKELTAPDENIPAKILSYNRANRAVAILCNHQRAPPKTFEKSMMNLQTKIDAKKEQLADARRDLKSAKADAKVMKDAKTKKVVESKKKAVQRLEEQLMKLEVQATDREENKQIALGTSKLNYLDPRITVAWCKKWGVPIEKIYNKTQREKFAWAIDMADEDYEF

In the case of `CC[C@@]1(O)C(=O)OCc2c1cc1n(c2=O)Cc2cc3c(CN(C)C)c(O)ccc3nc2-1` [TOPOTECAN, topotecan, reference compound], the IC (TGI) was 1.2 µM in test [1]; 2.18 µM in [2]; 2.81 µM in [3]; 100 µM in test [4] (MCF7, MCF 7, BREAST, 48h); > 100 µM in test [5] (Homo sapiens, HT-29, 48 h; read-out: Total Growth Inhibition (TGI)); 100 µM in [6]. Also, the IC (TGI) in test [7] (NCI-H460, H 460, NSLC, 48h) was 1.2 µM; in [8], 16.9 µM; in test [9] (HCC 2998, COLON CANCER, 48h), 15.8 µM; in test [10], 44.6 µM; in test [11] it was 5.12 µM; in test [12], 18.2 µM. Further, the IC (TGI) in [13] is 2.51 µM; in test [14] it was 56 µM; in [15] (HOP 62, NSLC, 48h) it was 0.04 µM; in test [16] it was 7.9 µM; in test [17] (NCI-H226, H 226, NSLC, 48h) it was 11 µM; in [18] (NCI-H23, H 23, NSLC, 48h), 0.87 µM. The IC (TGI) was found to be 4.16 µM in test [19]; 7.94 µM in test [20] (COLO 205, COLON CANCER, 48h); 2.51 µM in test [21]; 6.45 µM in [22] (KM12, KM 12, COLON CANCER, 48h); 1.5 µM in test [23] (Homo sapiens, NCI/ADR-RES, read-out: Total Growth Inhibition (TGI)); 2.5 µM in test [24]. The IC (TGI) in test [25] is > 100 µM; in test [26], 1.8 µM; in [27] it was 0.12 µM; in test [28], 1.69 µM; in [29] it was 0.28 µM; in test [30], 0.51 µM. Further, the IC (TGI) was 1.41 µM in [31]; 1.58 µM in test [32]; 2.51 µM in [33] (HCT 166, COLON CANCER, 48h); 1.5 µM in test [34] (MCF7 / ADR / RES, BREAST CANCER, 48h). The “Total Growth Inhibition (TGI)” value turned out to be 100 μm in [5]; 1.20 μm in [7] (H 460, NSLC, 48h); 15.80 μm in test [9] (HCC 2998, COLON CANCER, 48h); 1.5 μm in test [23].

On to `CC[C@@]1(O)C(=O)OCc2c1cc1n(c2=O)C(OCCOC)c2cc3ccccc3nc2-1` (stereo partly shown) [Example 43, 5-(2'-methoxyethoxy)camptothecin], for which, in test [35], the mean GI50 amounted to 2.23 µM. The IC (TGI) was determined as 17.8 µM in test [4] (MCF7, 48 h); 18.9 µM in test [5] (Homo sapiens, HT-29, 48 h, read-out: Total Growth Inhibition (TGI)); 14.2 µM in test [7] (NCI-H460, 48 h); 23.2 µM in test [9] (HCC 2998, 48 h); 3.92 µM in test [15] (HOP-62, 48 h); 6.89 µM in test [17] (NCI-H226, 48 h). Moreover, the IC (TGI) in [18] (NCI-H23, 48 h) was determined as 2.52 µM; in test [20] (COLO 205, 48 h), 37.3 µM; in test [22] (KM12, 48 h), 41.9 µM; in test [33] (48 h), 23.6 µM; in test [34] (48 h), 9.3 µM.

For `CCc1c2c(nc3ccc(OC)cc13)-c1cc3c(c(=O)n1C2)COC(=O)[C@]3(N)CC` [formula 7, 7-ethyl-10-methoxycamptothecin derivative], in [36], the “in vivo antitumor activity” value is given as “increased in vivo antitumor activity”.

Take `C=C1C(=O)OCc2c1cc1n(c2=O)Cc2c-1nc1ccc(O)cc1c2CC` [formula 9, 18-noranhydrocamptothecin analogue]: the “inhibition of topoisomerase I activity” value in [37] is on record as “potent camptothecin like inhibition of topoisomerase I activity”.
